Measured values: patent US11266626B2, “Reduction of ER-MAM-localized APP-C99 and methods of treating alzheimer's disease” (THE TRUSTEES OF COLUMBIA UNIVERSITY IN THE CITY OF NEW YORK, priority 2015, dated 2022)
“Also recorded” adds a separate entry of the source.

What was measured:
FAD fibroblasts = assay: Seahorse analysis of mitochondrial respiration (OCR); type: cell-based, human; conditions: FAD patient fibroblasts; BI
Protocol: (§1) Respirometry of cultured cells was performed using the XF24e Extracellular Flux Analyzer (Seahorse Bioscience). Oxygen consumption was measured in basal conditions (Seahorse media with 25 mM glucose and 2 mM pyruvate) and after the sequential addition of 1 μM oligomycin (Complex V inhibitor), 0.75 μM FCCP (uncoupler) and 1 μM rotenone/1 μM antimycin A (Complex I and Complex III inhibitors respectively).
(§2) Respirometry of cultured cells was performed using the XF24e Extracellular Flux Analyzer (Seahorse Bioscience). Oxygen consumption was measured in basal conditions (Seahorse media with 25 mM glucose and 2 mM pyruvate) and after the sequential addition of 1 μM oligomycin (complex V inhibitor), 0.75 μM FCCP (uncoupler), and 1 μM rotenone/1 μM antimycin A (complex I and complex III inhibitors, respectively). All results were averages of five or more biological replicates. Every biological replicate consisted of three technical replicates. For every technical replicate, we plated equal number of cells (25,000 cell/well when MEFs were used, and 50,000 cells/well when human primary fibroblasts were analyzed). The number of cells was also counted after every respirometry assay to correct for cell death. All oxygen consumption (OCR) data were normalized by the number of viable cells or by protein quantity when isolated mitochondria were used.

PS-DKO cells = assay: Analysis of ER-mitochondrial apposition (colocalization of ER and mitochondrial markers); type: cell-based, mouse; conditions: 100 nM BI, 12-16 h
Protocol: Interactions between mitochondria and ER were performed as described (5).
Cells under were co-transfected with GFP-Sec61-β (Addgene plasmid #15108) and DsRed-Mito (Clontech, #632421) at a 1:1 ratio, using Lipofectamine 2000 (Invitrogen, #11668-027) in serum-free DMEM. Twelve hours post-transfection, cells were analyzed as described (8).
Cells under were co-transfected with GFP-Sec61-β (Addgene plasmid #15108) and DsRed2-Mito (Clontech, #632421) at a 1:1 ratio, using Lipofectamine 2000 (Invitrogen, #11668-027) in serum-free DMEM. Twelve hours post-transfection, cells were analyzed as described (Guardia-Laguarta et al., 2014).
Cells under were co-transfected with GFP-Sec61-β (Addgene plasmid #15108) and DsRed2-Mito (Clontech, #632421) at a 1:1 ratio, using Lipofectamine 2000 (Invitrogen, #11668-027) in serum-free DMEM. Twelve hours post-transfection, cells were analyzed as described (Guardia-Laguarta et al, 2014).

ACAT1 = assay: ACAT activity assay (conversion of 3H-cholesterol to cholesteryl esters); type: cell-based, mouse; conditions: PS-DKO cells; 100 nM BI, 12-16 h
Protocol: To measure cholesterol uptake in vivo, cultured cells were incubated in serum-free medium for 2 h to remove all exogenous lipids. After that, 2.5 μCi/ml of 3H-cholesterol was added to FBS-free DMEM containing 2% FAF-BSA, allowed to equilibrate for at least 30 min at 37° C., and the radiolabeled medium was added to the cells for the indicated periods of time. Cells were then washed and collected in DPBS, removing a small aliquot for protein quantification. Lipids were extracted in 3 volumes of chloroform:methanol (2:1 v/v). After vortexing and centrifugation at 8000×g for 5 min, the organic phase was blown to dryness under nitrogen. […] Iodine-stained bands corresponding to cholesterol and cholesteryl esters were scraped and counted.
(§3) To measure cholesterol esterification in vivo, cultured cells were incubated in serum-free medium for 2 h to remove all exogenous lipids. […] Cells were then washed and collected in DPBS, removing a small aliquot for protein quantification. […] Iodine-stained bands corresponding to cholesterol and cholesteryl esters were scraped and counted.
as §3

PS-DKO MEFs = assay: Uptake of Bodipy-labeled fluorescent cholesterol; type: cell-based, mouse
Protocol: To measure uptake of fluorescent cholesterol, cultured cells were incubated with 1 μM Bodipylabeled cholesterol (Avanti Lipids; 810255P) for 12 h. Alternatively, Bodipy-cholesterol was complexed with methyl-β-cyclodextrin at a 1:10 molar ratio of sterol:cyclodextrin and added to cultured cells to a final concentration of 25 μg/ml for 6-8 h. Cholesterol droplets were visualized by microscopy and fluorescence was quantified by ImageJ.

APP C-terminal fragments = assay: Western blot of APP C-terminal fragments in total homogenates; type: cell-based, mouse; conditions: PS-DKO MEFs total homogenates; BI
Protocol: Purification of ER, MAM, and mitochondria was performed and analyzed as described (4).
Purification of ER, MAM, and mitochondria was performed and analyzed as described Area-Gomez et al., 2009, the contents of which is hereby incorporated by reference in its entirety.
Purification of ER, MAM, and mitochondria was performed and analyzed as described (Area-Gomez et al, 2009). For C99 detection, samples were run in 4-12% Bis-Tris gels (Criterion XT Precast Midi Gels, BioRad) in XT MES buffer.

SH-SY5Y cells [1] = assay: Seahorse analysis of mitochondrial respiration (OCR); type: cell-based, human; conditions: 10 μM DAPT vs untreated
Protocol: as §1, §2

SH-SY5Y cells [2] = assay: Mitochondrial content and biogenesis (VDAC western blot; qRT-PCR); type: cell-based, human

Structure (SMILES) | mitochondrial respiration (OCR) (FAD fibroblasts) | degree of ER-mitochondrial co-localization (apposition) (PS-DKO cells) | incorporation of radiolabeled cholesterol into cholesteryl esters (ACAT1 activity) (ACAT1) | uptake of Bodipy-labeled fluorescent cholesterol (PS-DKO MEFs) | accumulation of APP C-terminal fragments (APP C-terminal fragments) | mitochondrial respiration (OCR) (SH-SY5Y cells [1]) | mitochondrial content or biogenesis (SH-SY5Y cells [2])
C[C@@H](NC(=O)c1cc(C(=O)N[C@@H](Cc2ccccc2)[C@H](O)CNC2CC2)cc(N(C)S(C)(=O)=O)c1)c1ccccc1 [BI, β-secretase inhibitor IV] | reversed the defect in mitochondrial respiration; also recorded: rescued the respiration defects | reduced the degree of ER-mitochondrial co-localization significantly; also recorded: rescued the upregulation of ER-mitochondria apposition | reduced significantly the incorporation of radiolabeled cholesterol into cholesterol esters; also recorded: reduced the incorporation of cholesterol into cholesteryl esters | reduced uptake | eliminates the accumulation of APP C-terminal fragments |  | 
C[C@H](NC(=O)Cc1cc(F)cc(F)c1)C(=O)N[C@H](C(=O)OC(C)(C)C)c1ccccc1 [DAPT] |  |  |  |  |  | significant decrease in respiration; also recorded: significant reduction in respiration | without altering mitochondrial content or biogenesis
